{"source": "paper PMC8251347", "about": "“Crystal structure of the ferredoxin reductase component of carbazole 1,9a-dioxygenase from Janthinobacterium sp. J3” (Acta Crystallographica. Section D, Structural Biology, 2021)", "target": "T1, CARDO-RJ3 (ferredoxin reductase component of carbazole 1,9a-dioxygenase) (Janthinobacterium sp. J3, UniProt Q84II0)", "T1 construct": "gene carAd; full length, 329 residues, N-terminal His tag kept, expressed in E. coli (plasmid pEJ3NAd for the SeMet protein), monomer in solution; contains plant-type [2Fe-2S] cluster", "T1 sequence (Q84II0 1-329)": "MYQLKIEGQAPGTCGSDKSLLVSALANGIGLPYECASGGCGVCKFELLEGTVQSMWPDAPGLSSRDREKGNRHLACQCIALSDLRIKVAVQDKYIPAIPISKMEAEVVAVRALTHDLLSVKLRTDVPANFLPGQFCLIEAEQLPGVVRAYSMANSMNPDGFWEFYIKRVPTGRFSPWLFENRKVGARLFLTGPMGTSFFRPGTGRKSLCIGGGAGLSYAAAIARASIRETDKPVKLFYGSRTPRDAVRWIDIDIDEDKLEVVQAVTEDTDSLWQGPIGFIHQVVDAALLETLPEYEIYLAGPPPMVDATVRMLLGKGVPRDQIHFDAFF", "assay": "X-ray crystallography, […] A (type I crystal)", "details": "FAD-binding domain site; Ser151, Tyr165, Lys167, Ser217 hydrogen bonds; Phe135 and Phe328 stacking; [2Fe-2S] cluster present; no NAD(P)H"}
{"compound": "Cc1cc2nc3c(=O)[nH]c(=O)nc-3n(C[C@H](O)[C@H](O)[C@H](O)COP(=O)(O)OP(=O)(O)OC[C@H]3O[C@@H](n4cnc5c(N)ncnc54)[C@H](O)[C@@H]3O)c2cc1C", "note": "[FAD]", "values": [{"measurement": "X-ray crystallography, 2.6 A (type I crystal)", "result": "The type I structure contained the [2Fe-2S] cluster and FAD"}]}
